Source: patent US9012414B2, “Cosmetic composition” (Guerlain, priority 2010, dated 2015)
Entries after “also recorded” stand apart in the source; their conditions may differ.

Legend:
[1] = system: keratinocyte differentiation proteins (transglutaminase, involucrin, desmoglein 1); assay: Stimulation of the differentiation of normal human keratinocytes (immunolabeling of differentiation proteins); assay type: cell-based; settings: NHKs, 12 μg/ml, treatment 5 days
Procedure: (§1) The NHKs are cultured at passage 3 in complete KSFM medium in a T75 flask. At the pre-confluence stage, the NHKs are trypsinized and seeded in a proportion of 20 000 cells per well in 8-well Lab-Tek II culture systems (Nalge Nunc International), 4 wells per treatment condition. At 80% confluence, the cells are treated for 5 days with the various compositions of active agents (VT1, VT2, VT3, each at 12 μg/ml) until the post-confluence stage is reached. Vitactyl® clair (extract of Malva sylvestris, Silab) at 3% is used as a positive control.
(§2) The cells are rinsed with PBS (PBS Tablets, Invitrogen GIBCO) and then fixed with formalin (Formalin Solution, 10%, Neutral Buffered, Sigma) for 10 minutes.
(§3) After rinsing with PBS, the culture chambers are filled with a 0.1% Triton solution (Triton X-100, Sigma) for 10 minutes in order to permeabilize the membranes, and then rinsed twice with PBS. The cells are then covered with a solution of PBS/1% BSA (BSA, Sigma) for 30 minutes at ambient temperature. The PBS/BSA solution is removed from the slides by inclining them on absorbent paper. […]
(§4) For each condition, four photos are taken in green fluorescence (expression of the markers) with the ×20 objective. […]
(§5) The photos are analyzed using the Leica QWin image analysis software. A program is created in order to quantify the expression of these differentiation markers.

cytochrome C oxidase = assay: Stimulation of cytochrome C oxidase on modified human keratinocytes (HaCaT); assay type: cell-based; settings: for Activation of cytochrome C oxidase activity: HaCaT cells, treatment 3 h, positive control resveratrol 11.41 μg/ml (50 μM)
Procedure: The objective of the study is to evaluate the potential of the compounds which are the subject of the invention for stimulating the performance levels of the mitochondrial respiratory chain. The assays are carried out on genetically modified human keratinocytes (HaCaT).
The HaCaT cells were cultured in 6-well plates in RPMI 1640 medium (Roswell Park Memorial Institute) w/o HEPES (Invitrogen) supplemented with 10% of fetal calf serum (FCS, Invitrogen) and a penicillin/streptomycin mixture, until confluence. They were then treated, in DMEM (Dulbecco's Modified Eagle Medium, Invitrogen) containing 4.5 g/L of glucose, 0.1% BSA (Bovine Serum albumin AM2618 Invitrogen), with serial dilutions of vandaterosides (from 6.25 to 0.78 μg/ml) diluted in DMSO (0.1% v/v final concentration). Resveratrol (Sigma) at 50 μM, i.e. 11.41 μg/ml, was used as positive reference. The untreated cells containing 0.1% v/v of DMSO were considered to be a negative control. After treatment for 3 h, the cells were lysed (20 mM HEPES, 0.1% Triton, 1 mM EDTA) and the total cell proteins were assayed by means of the Bradford technique (B6916 Sigma). The total protein concentration of each sample was then adjusted to 2 mg/ml.
The cell lysate was incubated in the presence of an assay buffer (Sigma) in order to determine the enzymatic kinetics without the addition of substrate, denoted Vo. Cytochrome C (from equine heart C-7752 Sigma) reduced with DTT (dithiothreitol, Sigma) was added to the assay buffer at 50 μM in order to measure the rate of the enzymatic reaction. The disappearance of the reduced cytochrome C was monitored using a spectrophotometer [Beckman DU 640] at 550 nm for 90 seconds according to the manufacturer's (Sigma) instructions. The results were calculated from the enzymatic kinetics curves and are expressed as cytochrome C oxidase activity (U/μg of proteins).
The equations allowing the calculation of the enzymatic activities are the following: Enzymatic activity of cytochrome C in U/ml=ACOX=(DA/min)/21.84 with: • DA/min=A/min(v)−A/min (v0) • 21.84 (mM)=ε(molar extinction coefficient) of ferrocytochrome C at 550 nm • A=Absorbance at 550 nm • A/min(v)=Absorbance at 550 nm at time “v” in minutes, corresponding to the time of the measurement after the addition of the substrate; • A/min (v0)=Absorbance at 550 nm at time “v0” (at the start, i.e. before the addition of substrate) in minutes.
The results are expressed by comparison of the enzymatic activity measured in the presence of the vandaterosides (ACOX samples) relative to the control enzymatic activity (ACOX control): i.e. (ACOX samples)/(ACOX control).
A calculated (ACOX samples)/(ACOX control) ratio of greater than 1 indicates stimulation of the activity of cytochrome C oxidase in the presence of the samples.

[2] = system: mitochondrial dehydrogenases (complex I and complex II) of normal human keratinocytes (NHKs); assay: Stimulation of mitochondrial dehydrogenases on keratinocytes (XTT conversion to formazan); assay type: cell-based; settings: treatment 48 h; for Stimulation of mitochondrial dehydrogenase activity / mitochondrial respiratory functions (XTT): NHKs without irradiation, 6.25 to 0.78 μg/ml
Procedure: Normal human keratinocytes (NHKs), isolated from eyelids of 37-year-old Caucasian women, are cultured at passage 3 in complemented (Invitrogen) Keratinocyte Serum Free Medium (KSFM, Invitrogen) supplemented with 5% of fetal calf serum (FCS, Invitrogen).
The NHKs are seeded in 96-well plates (Greiner Bio One) in a proportion of 1.10^4 cells/well, and then incubated at 37° C., 5% CO2 for 24 h. These cells are then treated, after UVB irradiation (60 mJ/cm^2 Vilbeit-Lourmat irradiator) or without irradiation, with serial dilutions of the VT1, VT2 and VT3 compounds (from 6.25 to 0.78 μg/ml) diluted in DMSO (sigma) 0.1% v/v final concentration. The plates are incubated at 37° C., 5% CO2. The untreated cells containing 0.1% v/v of DMSO are considered to be a negative control. After treatment for 48 h, the supernatants are removed and the XTT solution (Cell proliferation kit II, Roche Diagnostic) is deposited in each well in order to determine the overall activity of the mitochondrial dehydrogenases. This activity is evaluated by means of the conversion of an XTT tetrazolium salt to soluble formazan, via a cell mechanism which calls for the enzymatic activities of the glycolytic NAD(P)H dehydrogenase (complex I) and of succinate dehydrogenase (complex II), which are constituents of the mitochondrial respiratory chain. The amount of colored formazan (determined by reading optical density at 450 nm) is directly related, firstly, to the enzymatic activity of the mitochondrial dehydrogenases and, secondly, to the amount of metabolically active cells (Roehm et al. J. Immunol. Methods, 1991; 142: 257-265). […] The 96-well plates are read at 450 nm with a spectrofluorometer (SpectraFluor Plus, Tecan). […]
The results are expressed as mean of the optical densities (OD) at 450 nm and standardized relative to the total concentration of cell proteins (expressed in μg/ml), which makes it possible to measure only the activity of the dehydrogenases and to dispel with the impact of cell proliferation on the measurement of the ODs obtained. […]

HaCaT cells = assay: Measurement of mitochondrial biogenesis on modified human keratinocytes (HaCaT), qPCR of 16S and COX2 DNA versus UCP-2; assay type: cell-based; settings: 48 h
Procedure: The objective is to verify whether or not the increase in enzymatic activity measured is linked to a basal stimulation of the respiratory chain of the mitochondria initially present or to an increase in the number of intracellular mitochondria, indicative of a stimulation of mitochondrial biogenesis.
The HaCaT cells are cultured in 6-well plates and then treated as described above. After treatment for 48 h, the cells are lysed with a buffer consisting of 10 mM of Tris base, 1 mM EDTA, 0.3M of sodium acetate and 1% SDS (1 ml/well) and according to an incubation time of overnight at 55° C. The mitochondrial DNA is extracted from the cell lysate with a phenol solution (1/1 ratio). Two cycles of centrifugation at 4000 rpm (5 minutes) are carried out. A solution de CHCl3/isoamyl alcohol (24:1, v/v) is then added to the upper aqueous phase, recovered after settling out. The mixture is then centrifuged (5 minutes, 4000 rpm, 4° C.).
Precipitation of the total DNA is induced by adding an absolute ethanol/3M sodium acetate mixture ([…]) to the supernatant. After centrifugation (30 minutes, 12000 rpm, 4° C.), the pellets are washed with EtOH at 70° v/v, and then dried and taken up in deionized water. The DNA is assayed using a spectrometer (Thermo Scientific Nanodrop). The DNA solutions are adjusted to a concentration of 10 ng/μl.
The expression of three different genes is measured by qPCR. This technique makes it possible to measure the amount of DNA polymerized by means of a fluorescent label. […]
The fluorescence is measured after the 45 cycles and the amount of DNA obtained is determined by means of the DNA range.
The results are expressed in amount of 16S and COX2 (QCOX2) DNA, calculated according to the amount of UCP-2 genomic DNA (QUCP-2), and which is defined as (QCOX2)/(QUCP-2)
A calculated (QCOX2)/(QUCP-2) ratio of greater than 1 indicates an increase in the amount of mitochondrial DNA, and reflects an increase in the number of intracellular mitochondria.

[3] = Solubility of the isolated vandaterosides; assay type: physicochemical
involucrin = assay: Involucrin expression in normal human keratinocytes (immunolabeling); assay type: cell-based; settings: NHKs, 12 μg/ml, treatment 5 days
Procedure: as §1, §2, §3, §4, §5

[4] = concentrations tested other than VT1 at 6.25 μg/ml

O=C(CC(O)(Cc1ccc(O)cc1)C(=O)O)OCc1ccc(O[C@@H]2O[C@H](CO)C(O)[C@H](O)[C@H]2O)cc1 (stereo partly drawn) [VT1, 4-(4-β-D-glucopyranosyloxybenzyl)-(2R)-2-(p-hydroxybenzyl) malate]
Stimulation of keratinocyte differentiation protein expression compared with the negative control [1]: most effective | Activation of cytochrome C oxidase activity (cytochrome C oxidase; 6.25 to 0.78 μg/ml): stimulatory effect | Dose effect on cytochrome C oxidase activity (cytochrome C oxidase; HaCaT, 6.25 to 0.78 μg/ml, 3 h): A dose effect is observed | Stimulation of mitochondrial dehydrogenase activity / mitochondrial respiratory functions (XTT) [2]: most effectively stimulate | Activation of mitochondrial biogenesis (increase in number of intracellular mitochondria) (HaCaT cells; 6.25 μg/ml, the exception means activation was seen): with the exception of VT1 at 6.25 μg/ml | Activation of mitochondrial biogenesis (increase in number of intracellular mitochondria) (HaCaT cells; [4]): neither of the two compounds induces an activation of mitochondrial biogenesis | Solubility in MeOH and DMSO [3]: soluble | Solubility in water ([3]; water): low solubility

O=C(CC(O)(Cc1ccc(O)cc1)C(=O)OCc1ccc(O[C@@H]2O[C@H](CO)[C@@H](O)[C@H](O)[C@H]2O)cc1)OCc1ccc(O[C@@H]2O[C@H](CO)[C@@H](O)[C@H](O)[C@H]2O)cc1 (stereo partly drawn) [VT2, 1,4-bis(4-β-D-glucopyranosyloxybenzyl)-(2R)-2-(p-hydroxybenzyl) malate]
Involucrin expression compared with positive control Vitactyl clair at 3% (involucrin): greater than that of the positive control | Stimulation of keratinocyte differentiation protein expression compared with the negative control [1]: most effective | Activation of cytochrome C oxidase activity (cytochrome C oxidase; 6.25 to 0.78 μg/ml): stimulatory effect; also recorded: best cytochrome C oxidase activator | Cytochrome C oxidase activity level compared with resveratrol (cytochrome C oxidase; HaCaT, 1.56 μg/ml (2 μM), 3 h, versus resveratrol 11.41 μg/ml (50 μM)): comparable to resveratrol | Stimulation of mitochondrial dehydrogenase activity / mitochondrial respiratory functions (XTT) [2]: most effectively stimulate | Stimulation of the activity of the dehydrogenases relative to the negative control ([2]; NHKs, 0.78 μg/ml (1 μM), negative control DMSO 0.1%): +39% | Activation of mitochondrial biogenesis (increase in number of intracellular mitochondria) (HaCaT cells; [4]): neither of the two compounds induces an activation of mitochondrial biogenesis | Solubility in MeOH and DMSO [3]: soluble | Concentration at which a gel forms in water ([3]; water): approximately 10 mM | Solubility in water ([3]; water): low solubility

O=C(/C=C/c1ccccc1)O[C@H]1[C@H](OC(CC(=O)OCc2ccc(O[C@@H]3O[C@H](CO)[C@@H](O)[C@H](O)[C@H]3O)cc2)(Cc2ccc(O)cc2)C(=O)OCc2ccc(O[C@@H]3O[C@H](CO)[C@@H](O)[C@H](O)[C@H]3O)cc2)O[C@H](CO)[C@@H](O)[C@@H]1O (stereo partly drawn) [VT3, 14-bis(4-β-D-glucopyranosyloxybenzyl)-(2R)-2-(2-β-D-glucopyranosyl-3-trans-cinnamoyl ester)-2-(p-hydroxybenzyl)malate]
Solubility in MeOH and DMSO [3]: soluble | Solubility in water ([3]; water): low solubility
